# According to patent EP0061882A1, “Process for preparing isoxazol-3-ylcarboxamides” (ELI LILLY AND COMPANY, priority 1981, dated 1982):
# What was measured:
# Test in all cases: broad spectrum greenhouse test, postemergence application
# Format in all cases: in vivo
# Details in all cases: rated about 10-13 days after application, scale 1-5
# Barnyard Grass = tested on: Barnyard Grass
# Description: (§1) A broad spectrum greenhouse test was run to show the activity of the acyloxadiazoles of formula III.
# (§2) Square plastic pots were filled with a sterilized sandy loam soil and were planted to seeds of the various crops and weeds. Each pot was indi- viduall^y fertilized.
# (§3) Test compounds of formula III were applied postemergence to some pots and preemergence to others. Postemergence applications of the compounds were sprayed over the emerged plants about 12 days after the seeds were planted. Preemergence applications were sprayed on the soil the day after the seeds were planted.
# (§4) Each test compound was dissolved in 1:1 acetone:ethanol at the rate of 2 g. per 100 ml. The solution also contained about 2 g. per 100 ml. of an anionic-nonionic surfactant blend. One ml. of the solution was diluted with deionized water to obtain the dilution desired. The.appropriate amount of the solution was applied to each pot.
# (§5) After the compounds were applied, the pots were moved to the greenhouse, watered as necessary, and observed and rated about 10-13 days after application of the compounds. Untreated control plants were used as standards in every test.
# Wild Oat = tested on: Wild Oat
# Description: as §1, §2, §3, §4, §5
# Mustard = tested on: Mustard; set-up: key: 1 = normal plants; 5 = dead plants or no emergence
# Description: as §1, §2, §3, §4, §5
# Tomato = tested on: Tomato; set-up: key: 1 = normal plants; 5 = dead plants or no emergence
# Description: as §1, §2, §3, §4, §5
# Large Crabgrass = tested on: Large Crabgrass; set-up: key: 1 = normal plants; 5 = dead plants or no emergence
# Description: as §1, §2, §3, §4, §5
# Morningglory = tested on: Morningglory; set-up: key: 1 = normal plants; 5 = dead plants or no emergence
# Description: as §1, §2, §3, §4, §5
# Pigweed = tested on: Pigweed; set-up: key: 1 = normal plants; 5 = dead plants or no emergence
# Description: as §1, §2, §3, §4, §5
# Foxtail = tested on: Foxtail; set-up: key: 1 = normal plants; 5 = dead plants or no emergence
# Description: as §1, §2, §3, §4, §5
# Velvetleaf = tested on: Velvetleaf; set-up: key: 1 = normal plants; 5 = dead plants or no emergence
# Description: as §1, §2, §3, §4, §5
# Zinnia = tested on: Zinnia; set-up: key: 1 = normal plants; 5 = dead plants or no emergence
# Description: as §1, §2, §3, §4, §5
smiles,measurement,setting,value
"CN(C)c1nc(CC(=O)C(C)(C)C)no1 [5-dimethylamino-3-(2,2-dimethylpropionyl-methyl)-1,2,4-oxadiazole]","Postemergence rating, Barnyard Grass",Barnyard Grass; Rate of Appln. 1 lbs./acre,4
same,"Postemergence rating, Barnyard Grass",Barnyard Grass; Rate of Appln. 2 lbs./acre,4
same,"Postemergence rating, Barnyard Grass",Barnyard Grass; Rate of Appln. 4 lbs./acre,4
same,"Postemergence rating, Wild Oat",Wild Oat; Rate of Appln. 1 lbs./acre,2
same,"Postemergence rating, Wild Oat",Wild Oat; Rate of Appln. 2 lbs./acre,3
same,"Postemergence rating, Wild Oat",Wild Oat; Rate of Appln. 4 lbs./acre,4
same,"Postemergence rating, Mustard",Mustard; Rate of Appln. 1 lbs./acre,5
same,"Postemergence rating, Mustard",Mustard; Rate of Appln. 2 lbs./acre,4
same,"Postemergence rating, Mustard",Mustard; Rate of Appln. 4 lbs./acre,5
same,"Postemergence rating, Tomato",Tomato; Rate of Appln. 1 lbs./acre,3
same,"Postemergence rating, Tomato",Tomato; Rate of Appln. 2 lbs./acre,5
same,"Postemergence rating, Tomato",Tomato; Rate of Appln. 4 lbs./acre,5
same,"Postemergence rating, Large Crabgrass",Large Crabgrass; Rate of Appln. 1 lbs./acre,5
same,"Postemergence rating, Large Crabgrass",Large Crabgrass; Rate of Appln. 2 lbs./acre,5
same,"Postemergence rating, Large Crabgrass",Large Crabgrass; Rate of Appln. 4 lbs./acre,5
same,"Postemergence rating, Morningglory",Morningglory; Rate of Appln. 1 lbs./acre,2
same,"Postemergence rating, Morningglory",Morningglory; Rate of Appln. 2 lbs./acre,5
same,"Postemergence rating, Morningglory",Morningglory; Rate of Appln. 4 lbs./acre,4
same,"Postemergence rating, Pigweed",Pigweed; Rate of Appln. 1 lbs./acre,5
same,"Postemergence rating, Pigweed",Pigweed; Rate of Appln. 2 lbs./acre,5
same,"Postemergence rating, Pigweed",Pigweed; Rate of Appln. 4 lbs./acre,5
same,"Postemergence rating, Foxtail",Foxtail; Rate of Appln. 1 lbs./acre,4
same,"Postemergence rating, Foxtail",Foxtail; Rate of Appln. 2 lbs./acre,5
same,"Postemergence rating, Foxtail",Foxtail; Rate of Appln. 4 lbs./acre,5
same,"Postemergence rating, Velvetleaf",Velvetleaf; Rate of Appln. 1 lbs./acre,5
same,"Postemergence rating, Velvetleaf",Velvetleaf; Rate of Appln. 2 lbs./acre,5
same,"Postemergence rating, Velvetleaf",Velvetleaf; Rate of Appln. 4 lbs./acre,5
same,"Postemergence rating, Zinnia",Zinnia; Rate of Appln. 1 lbs./acre,5
same,"Postemergence rating, Zinnia",Zinnia; Rate of Appln. 2 lbs./acre,5
same,"Postemergence rating, Zinnia",Zinnia; Rate of Appln. 4 lbs./acre,5
